Where two headings read alike, the source gives them in different places.
How the values were obtained:
[1] = Object recognition test (preclinical); assay type: in vivo; conditions: preclinical stage
[2] = Fear conditioning (preclinical); assay type: in vivo; conditions: preclinical studies
[3] = Morris water maze (preclinical); assay type: in vivo; conditions: preclinical study
[4] = test system: human neuroglioma cells over-expressing the Swedish mutated APP (H4swe); conditions: read-out: IC50 for lowering Aβ42 secretion; cited from earlier work
COX-1 = COX-1 (Homo sapiens, UniProt P23219); conditions: concentrations up to 100 μM; cited from earlier work
Chain of COX-1 (P23219 24-599): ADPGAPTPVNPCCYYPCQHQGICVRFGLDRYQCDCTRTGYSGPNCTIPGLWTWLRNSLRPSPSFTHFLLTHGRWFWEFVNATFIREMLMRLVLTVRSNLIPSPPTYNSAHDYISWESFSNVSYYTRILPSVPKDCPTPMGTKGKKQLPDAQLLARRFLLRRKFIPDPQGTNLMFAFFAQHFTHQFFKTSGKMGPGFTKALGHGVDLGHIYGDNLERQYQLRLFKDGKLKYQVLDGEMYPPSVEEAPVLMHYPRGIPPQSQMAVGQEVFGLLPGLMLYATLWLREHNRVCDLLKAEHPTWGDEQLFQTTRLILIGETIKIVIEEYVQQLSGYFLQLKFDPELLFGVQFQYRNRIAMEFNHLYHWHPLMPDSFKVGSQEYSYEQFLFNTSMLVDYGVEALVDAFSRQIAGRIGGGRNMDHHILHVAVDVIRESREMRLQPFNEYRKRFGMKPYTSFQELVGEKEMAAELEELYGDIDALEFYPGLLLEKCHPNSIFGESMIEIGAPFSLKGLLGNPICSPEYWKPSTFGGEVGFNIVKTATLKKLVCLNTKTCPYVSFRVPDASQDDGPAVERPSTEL

COX-2 = target: T1, COX-2 (Homo sapiens, UniProt P35354); conditions: concentrations up to 300 μM; cited from earlier work
T1 sequence (P35354 18-604): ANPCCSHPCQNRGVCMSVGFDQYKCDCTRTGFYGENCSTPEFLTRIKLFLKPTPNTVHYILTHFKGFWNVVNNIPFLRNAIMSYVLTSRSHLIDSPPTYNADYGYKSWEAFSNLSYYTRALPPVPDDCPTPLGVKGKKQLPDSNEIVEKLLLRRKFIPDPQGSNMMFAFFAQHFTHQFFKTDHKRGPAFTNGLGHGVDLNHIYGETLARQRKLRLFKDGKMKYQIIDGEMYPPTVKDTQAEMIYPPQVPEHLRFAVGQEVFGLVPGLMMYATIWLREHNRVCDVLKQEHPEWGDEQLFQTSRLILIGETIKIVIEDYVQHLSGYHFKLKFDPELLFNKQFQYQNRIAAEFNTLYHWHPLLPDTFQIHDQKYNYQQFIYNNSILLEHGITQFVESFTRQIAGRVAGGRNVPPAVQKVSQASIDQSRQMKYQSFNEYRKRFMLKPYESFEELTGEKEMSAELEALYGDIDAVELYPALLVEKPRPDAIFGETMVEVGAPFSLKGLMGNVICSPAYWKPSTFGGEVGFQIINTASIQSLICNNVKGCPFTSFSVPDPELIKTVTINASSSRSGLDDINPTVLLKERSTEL

[5] = test system: Notch intracellular cleavage in human embryonic kidney 293 swe cells; conditions: 5 μM; cited from earlier work
NICD-responsive genes = conditions: 100 μM; cited from earlier work
[6] = mice, oral; cited from earlier work
[7] = rats, oral; cited from earlier work
[8] = species not given; follows mice and rats; cited from earlier work
[9] = guinea-pigs, cited from earlier work
[10] = dogs, cited from earlier work
[11] = test system: transgenic mouse models of AD; conditions: cited from earlier work
γ-secretase [12] = conditions: cited from earlier work
AD patients = conditions: cited from earlier work
dendritic spine density = conditions: mice; cited from earlier work
γ-secretase [13] = conditions: cited from earlier work; remark: listed apart in the source

Structure (SMILES): O=C(O)C1(c2ccc(-c3ccc(Cl)c(Cl)c3)c(F)c2)CC1 [CHF 5074, 1-(3′,4′-dichloro-2-fluorobiphenyl-4-yl)cyclopropanecarboxylic acid]
- object recognition test performance [1]: positive effects
- fear conditioning performance [2]: significantly improved
- Morris water maze performance [3]: marginal effects
- IC50 [4]: 3.6 µM
- inhibitory activity on COX-1 (COX-1): does not display inhibitory activity
- inhibitory activity on COX-2 (COX-2): does not display inhibitory activity
- effects on Notch intracellular cleavage [5]: no effects were observed
- expression profile of several NICD-responsive genes (NICD-responsive genes): does not alter
- absorbed orally [6]: 74%
- absorbed orally [7]: 50%
- brain levels as % of corresponding plasma concentrations [8]: 3-14%
- plasma elimination half-life t1/2 ([9]; after oral administration): ≈ 30 hours
- brain penetration [9]: 3-9%
- absorbed by oral route ([10]; oral): 80-100%
- plasma elimination t1/2 [10]: ≈ 24 hours
- tolerability ([11]; 60 mg/kg/day, prolonged treatment for 4-9 months, mice): well tolerated
- neuropathological and behavioral activity ([11]; oral doses of 60 mg/kg/day): active from neuropathological and behavioral points of view

Structure (SMILES): CSc1ccc(/C=C2/C(C)=C(CC(=O)O)c3cc(F)ccc32)cc1 [sulindac sulfide]
- formation of Aβ38 (γ-secretase [12]): increase
- production of Aβ42 (γ-secretase [12]): lower

Structure (SMILES): CC(C)Cc1ccc(C(C)C(=O)O)cc1 (stereo not drawn) [ibuprofen]
- formation of Aβ38 (γ-secretase [12]): increase
- production of Aβ42 (γ-secretase [12]): lower

Structure (SMILES): COc1ccc2c(c1)c(CC(=O)O)c(C)n2C(=O)c1ccc(Cl)cc1 [indomethacin]
- formation of Aβ38 (γ-secretase [12]): increase
- production of Aβ42 (γ-secretase [12]): lower

Structure (SMILES): CC(C(=O)O)c1ccc(-c2ccccc2)c(F)c1 (stereo not drawn) [flurbiprofen]
- formation of Aβ38 (γ-secretase [12]): increase
- production of Aβ42 (γ-secretase [12]): lower

Structure (SMILES): CC(C)[C@H](O)C(=O)N[C@@H](C)C(=O)N[C@@H]1C(=O)N(C)CCc2ccccc21 [semagacestat]
- cognition and ability to complete activities of daily living versus placebo (AD patients; interim analysis of two Phase 3 trials): worsened over time to a statistically significantly higher rate
- rate of skin cancer compared to placebo (AD patients; two 21-month Phase 3 trials, more than 2,600 AD patients): increased rate of skin cancer
- dendritic spine density (dendritic spine density): decrease
- brain and CSF levels of Aβ42 peptide (γ-secretase [13]; brain and CSF): increase
- brain level of C-terminal fragment of APP (CTFβ or C99) (γ-secretase [13]; brain): accumulation

Reference: patent US9592210B2, “1-phenylalkanecarboxylic acid derivatives for the treatment of cognitive impairment” (Chiesi Farmaceutici S.p.A., priority 2011, dated 2017)
